Assays:
Format in all cases: cell-based, human
iDCs = experiment: Fatty acid screen: fatty acids titrated onto iDCs without OVA, nAFP or tAFP; details: for lactate production: relative to control cells, 16:0 at 5-20 μM in b86
Text: We developed an in vitro assay to screen specific FAs that are necessary for tAFP-mediated suppression of DC formation (FIG. 6A). Many of the FAs screened have known roles in promoting (Weatherill, A. R. et al. Saturated and Polyunsaturated Fatty Acids Reciprocally Modulate Dendritic Cell Functions Mediated through TLR4. J Immunol. 174, 5390-5397 (2005); Lancaster, G. I. et al. Evidence that TLR4 Is Not a Receptor for Saturated Fatty Acids but Mediates Lipid-Induced Inflammation by Reprogramming Macrophage Metabolism. Cell Metab. 27, 1096-1110.e5 (2018)) or limiting DC differentiation (Zeyda, M. et al. Polyunsaturated Fatty Acids Block Dendritic Cell Activation and Function Independently of NF-κB Activation. J Biol. Chem. 280, 14293-14301 (2005)). Therefore, to determine their necessity for tAFP-mediated DC suppression, we titrated several FAs unique to tAFP (20:3 N6, 20:5, and 22:5 N3), and other PUFAs to determine the concentration they lost their inherent ability to suppress DC differentiation in the absence of OVA, nAFP, or tAFP (FIG. 6A). […] All three PUFAs at high concentrations inhibited CD206 expression on DCs (Zeyda. M. et al. Polyunsaturated Fatty Acids Block Dendritic Cell Activation and Function Independently of NF-κB Activation. J Biol. Chem. 280, 14293-14301 (2005)), at levels equivalent to or greater than tAFP treatment.
Fatty acids were resuspended in ethanol and stored at −20° C. at 100 uM. […] Both the native preparations and HMM fractions contained similar amounts of protein (˜0.5 mg/mL), whereas protein was undetectable ([…]) in the low molar mass (LMM) fraction. […] Fats (+/−HMM) were added to pre-warmed media and incubated for 1 hour, mixing at 37° C. before adding to cells (Alsabeeh, N., Chausse, B., Kakimoto, P. A., Kowaltowski, A. J. & Shirihai, O. Cell Culture Models of Fatty Acid Overload: Problems and Solutions. Biochim. Biophys. Acta 1863, 143-151 (2018)). Fats were combined with HMM at a 3:1 molar ratio, as previously described (Alsabeeh, N., Chausse, B., Kakimoto, P. A., Kowaltowski, A. J. & Shirihai. O. Cell Culture Models of Fatty Acid Overload: Problems and Solutions. Biochim. Biophys. Acta 1863, 143-151 (2018)).

iDCs and mDCs = experiment: Fatty acid screen: fatty acids added back to HMM OVA, nAFP or tAFP; details: for CD206 expression at the iDC stage / inhibition of CD206 expression, mDC: FA combined with tAFP; for CD206 expression compared to controls: FA+HMM tAFP
Protocol: Fatty acids were resuspended in ethanol and stored at −20° C. at 100 uM.

[1] = test system: monocyte-derived dendritic cells (DCs); experiment: SCENITH single-cell energetic metabolism profiling of treated DCs; details: DC
Text: (§1) DCs were differentiated in vitro similarly as previously described (Pardee, A. D., Shi, J. & Butterfield, L. H. Tumor-Derived α-Fetoprotein Impairs the Differentiation and T Cell Stimulatory Activity of Human Dendritic Cells. J Immunol. 193, 5723-5732 (2014)). In brief, cryopreserved PBMC were thawed and CD14*monocytes were magnetically labeled using CD14 MicroBeads (Miltenyi, Cat #130-050-201) and isolated by LS columns (Miltenyi, Cat #130-042-401) per the manufacturer instructions. Viable eluted cells were enumerated using trypan blue on a Nexcelom Cellometer Spectrum. To generate iDCs, monocytes were stimulated for 5 days in the presence of 800 IU/mL of rGM-CSF (Miltenyi, Cat #130-093-862) and 500 IU/mL of rIL-4 (Miltenyi, Cat #130-095-373) as well as OVA, nAFP, or tAFP in CellGenix® GMP DC media (Cat #20801-0500) 37° C. at 5% CO2. Lastly, we performed an additional 24-hour stimulation with 1000 IU/mL of rIFN-γ (Peprotech, Cat #300-02) and 250 ng/mL of LPS (Sigma Aldrich, Cat #L2630-10MG) to produce mDCs. To harvest cells, DC were detached using TrypLE™ Select (Gibco, Cat #12563011) for 15 minutes at 37° C. and then washed several times with cold PBS.
SCENITH was performed as described in (Arguello et al., 2020). SCENITH™ reagents kit (inhibitors, puromycin and antibodies) were obtained from www.scenith.com/try-it and used according to the provided protocol for in-vitro derived myeloid cells. Briefly, control and tol-moDC cultures at desired timepoints, were treated for 18 minutes with Control (DMSO), 2-Deoxy-Glucose (2-DG; 100 mM), Oligomycin (0; 1 μM), a combination of 2DG and Oligomycin (DGO) or Harringtonine (H; 2 μg/mL). Following metabolic inhibitors, Puromycin (final concentration 10 μg/mL) was added to cultures for 17 min. After puromycin treatment, cells were detached from wells using TypLE Select (Fisher Scientific, 505914419), washed in cold PBS and stained with a combination of Human TureStain FcX (Biolegend, 422301) and fluorescent cell viability dye (Biolegend, 423105) for 10 min 4° C. in PBS. Following PBS wash step, primary antibodies against surface markers were incubated for 25 min at 4° C. in Brilliant Stain Buffer (BD Biosciences, 563794). Next cells were fixed and permeabilized using True-Nuclear Transcription Factor Buffer Set (Biolegend, 424401) as per manufacturer instructions. Intracellular staining of puromycin and protein targets was performed for 1 h in diluted (10×) permeabilization buffer at 4° C. Finally, data acquisition was performed using the Cytek Aurora flow cytometer. Primary conjugated antibody information used in SCENITH panel is listed in supplementary table 1. All antibodies were titrated to reduce spillover and increase resolution using single stained moDC (generated as described above) samples. Unstained cell controls used for autofluorescence extraction were generated for each time point, culture conditions (control, vitd3-tol-moDC and dexa-vitd3-tol-moDC) and metabolic inhibitor treatments (C, 2DG, O, DGO). Samples were unmixed using reference controls generated in combination with stained Ultracomp beads (Fisher Scientific, 01-2222-41) and stained cells using the SpectroFlo Software v2.2.0.1. The unmixed FCS files were used for data processing and analysis using FlowJo (BD, version 10.7.1). Manually gated CD14-HLA-DR*CD86+ cells were used for downstream analysis. gMFI expression values were imported into R environment for correlation and heatmap analysis using the below described R packages.

[2] = test system: monocyte-derived dendritic cells (DCs); experiment: Glucose and lactate measurements in DC cultures; details: DC
Text: as §1
Glucose and lactate were measured by applying approximately 5 μL of supernatant to Clarity BG1000 Blood Glucose strips (Cat #75840-798) and meter (Cat #75840-800) system or the Lactate Plus strips (Nova Biomedical©, Cat #40813) and meter version 2 (Nova Biomedical©, Cat #62624) system. Each meter was quality checked with control glucose and lactate solutions and CellGenix™ media before each experiment.

mDCs generated in vitro = experiment: scMEP single-cell metabolic regulome profiling by CyTOF
Protocol: scMEP analysis was performed as recently described (Hartmann et al., 2021). In short, antibodies targeting metabolic features were conjugated in-house using an optimized conjugation protocol (Hartmann et al., 2019) and validated on multiple sample types. Cells were prepared for scMEP analysis by incubation with small molecules to be able to assess biosynthesis rates of DNA, RNA and protein, cisplatin-based live/dead staining, PFA-based cell fixation and cryopreservation (dx.doi.org/10.17504/protocols.io.bkwkkxcw). Next, cells were stained with metabolic antibodies in a procedure that includes surface staining for 30 min at RT, PFA-fixation for 10 min at RT, MeOH-based permeabilization for 10 min on ice, intracellular staining for 1 h at RT and DNA intercalation (dx.doi.org/10.17504/protocols.io.bntnmeme). Finally, cells were acquired on a CyTOF2 mass cytometer (Fluidigm). Protein targets and antibody information used in scMEP are listed in supplementary table 2. Raw mass spectrometry data were pre-processed, de-barcoded and imported into R environment using the flowCore package (version 2.0.1) (Hahne et al., 2009). Values were arcsin h transformed (cofactor 5) and normalized (Hartmann et al., 2021) for downstream analyses based on previously reported workflow (Nowicka et al., 2017).

Molecule: CCCCCCCCCCCCCCCC(=O)O [16:0, palmitic acid]
- ox-phos (iDCs): can promote
- CD206 expression on DCs (iDCs; fatty acid alone): increase
- DC differentiation (iDCs; fatty acid alone): tended to promote
- lactate production (iDCs; fatty acid alone): tended to decrease
- lactate production (iDCs; fatty acid alone, listed as palmitic acid): decrease

Molecule: CCCCC/C=C\C/C=C\C/C=C\C/C=C\CCCC(=O)O [20:4, arachidonic acid]
- CD206 expression at the iDC stage (iDCs and mDCs): immunoregulatory activity
- inhibition of CD206 expression, mDC (iDCs and mDCs): ~-15%
- CD206 expression compared to controls (iDCs and mDCs): significantly reduced

Molecule: CCCCC/C=C\C/C=C\C/C=C\C/C=C\CCCCCC(=O)O [22:4, adrenic acid]
- inhibition of CD206 expression, mDC (iDCs and mDCs): ~-15%

Molecule: CCCCC/C=C\C/C=C\C/C=C\CCCCCCC(=O)O [20:3 N6, dihomo-γ-linolenic acid]
- CD206 expression at the iDC stage (iDCs and mDCs): immunoregulatory activity
- inhibition of CD206 expression, mDC (iDCs and mDCs): ~-15%
- CD206 expression compared to controls (iDCs and mDCs): significantly reduced

B1: palmitic acid-bound AFP: alpha fetoprotein non-covalently bound to palmitic acid (protein, UniProt P02771 19-609, looked up)
Alpha-fetoprotein: RTLHRNEYGIASILDSYQCTAEISLADLATIFFAQFVQEATYKEVSKMVKDALTAIEKPTGDEQSSGCLENQLPAFLEELCHEKEILEKYGHSDCCSQSEEGRHNCFLAHKKPTPASIPLFQVPEPVTSCEAYEEDRETFMNKFIYEIARRHPFLYAPTILLWAARYDKIIPSCCKAENAVECFQTKAATVTKELRESSLLNQHACAVMKNFGTRTFQAITVTKLSQKFTKVNFTEIQKLVLDVAHVHEHCCRGDVLDCLQDGEKIMSYICSQQDTLSNKITECCKLTTLERGQCIIHAENDEKPEGLSPNLNRFLGDRDFNQFSSGEKNIFLASFVHEYSRRHPQLAVSVILRVAKGYQELLEKCFQTENPLECQDKGEEELQKYIQESQALAKRSCGLFQKLGEYYLQNAFLVAYTKKAPQLTSSELMAITRKMAATAATCCQLSEDKLLACGEGAADIIIGHLCIRHEMTPVNPGVGQCCTSSYANRRPCFSSLVVDETYVPPAFSDDKFIFHKDLCQAQGVALQTMKQEFLINLVKQKPQITEEQLEAVIADFSGLLEKCCQGQEQEVCFAEEGQKLISKTRAALGV
modifications: non-covalently bound palmitic acid
- CD206 expression in dendritic cells (iDCs and mDCs; fatty acid-bound AFP): increased
- lactate secretion in dendritic cells (iDCs and mDCs; fatty acid-bound AFP): decreased

B2: nAFP: cord blood-derived normal alpha fetoprotein; commercially available (Cell Sciences) (protein, UniProt P02771 19-609, looked up)
Alpha-fetoprotein: B1 Alpha-fetoprotein
- FAO [1]: similarly reduces
- glucose dependent metabolism [1]: modestly increases
- glucose uptake [2]: modestly increases
- levels of cytochrome C (CytC) (mDCs generated in vitro): elevated

Source: patent US20260166115A1, “POLYUNSATURATED FATTY ACID-BOUND ALPHA FETOPROTEIN PROMOTES IMMUNE SUPPRESSION BY ALTERING HUMAN DENDRITIC CELL METABOLISM” (The Regents of the University of California, priority 2022, published 2026)
